{
  "source": "paper PMC10517462",
  "about": "“Small molecule targeting of the p38/Mk2 stress signaling pathways to improve cancer treatment” (BMC Cancer, 2023)",
  "key": {"[1]": {"parameters": "method as in PMID 26502061", "conditions": "cited from earlier work"}, "[2]": {"tested_on": "SW480 colorectal cancer cell line", "assay": "CCK8 cell viability assay, SW480", "type": "cell-based, human", "conditions": "MK2.III 1 µM alone, 24 h", "method": "(§1) To assess the effect of MK2.III kinase inhibitor and the etoposide (VP-16) on the viability of different cancer cell lines, cells were seeded in 96-well plates in a concentration of 5000 cells per well. After 12 h, etoposide and 1 μM MK2.III diluted in culture media were added into the wells for 24 h. NCI-H69 cells were exposed to a series of etoposide concentrations from 20 μM to 150 μM. MDA-MB-231, SW 620, and SW 480 cell lines were incubated with 150 μM etoposide. After treatment, 10 μL of the CCK-8 reagent (96992, Sigma) was added to each well for 1 h followed by optical density measurement at 450 nm using hybrid plate reader Synergy H1."}, "[3]": {"tested_on": "NCI-H69 xenograft", "assay": "Tumor (xenograft) suppression with combination chemotherapy in SCID mice", "type": "in vivo", "conditions": "for Tumor Volume (mm^3) median (25th and 75th quartile): VP-16 12 mg/kg", "method": "To establish the most suitable xenograft model for the main experiment we used two mouse lines – BALB/c Nude and SCID (both female, 6 weeks, n = 20, Charles River). Both mouse lines were injected with NCI-H69 cancer cells (xenograft). Before injection, cells were grown at 37 °C in RPMI-1640 medium containing 10% FBS and pen/strep. Cells were mixed with Matrigel (1:1) and depending on the group 5 × 10^6 or 10 × 10^6 cells were injected into a mouse subcutaneously along the spine to the level of the left scapula. Mice were divided into 4 groups: (1) 5 × 10^6 NCI-H69 SCID (n = 5); (2) 5 × 10^6 NCI-H69 Nude (n = 5); (3) 10 × 10^6 NCI-H69 SCID (n = 5); and (4) 10 × 10^6 NCI-H69 Nude (n = 5).\nThe main experiment (injection of the drugs) took place after the tumor growth was established. The tumor growth in mice following the injection of cells was monitored twice a week and upon reaching the volume of ~ 100 mm^3, animals were randomized into 5 groups (12 female SCID mice in each group). The drug treatment was performed as follows: the first group was a control and received a placebo in the form of PBS (tumor volume 95 ± 38 mm^3); the second group received 12 mg/kg of Etoposide (tumor volume 101 ± 51 mm^3); the third group was injected with 4 mg/kg of MK2.III (tumor volume 105 ± 44 mm^3); fourth and fifth groups were injected with 12 mg/kg of Etoposide and 4 mg/kg or 2 mg/kg of MK2.III (tumor volumes 112 ± 57 and 107 ± 49 mm^3 respectively). Drugs were injected intraperitoneally daily. Etoposide was injected 3 days after the randomization into groups and MK2.III was administered for 28 days. Tumor growth/suppression was measured using calipers every 3–4 days for the duration of the 28-day treatment and the tumor volume was calculated as follows:[…],\nAntitumor properties of drugs in the test group were determined based on the slowing of the tumor growth or tumor volume compared with the control group receiving PBS. Animal welfare was monitored throughout the study period to ensure that animals in distress were euthanized by carbon dioxide asphyxiation. All the animals were also euthanized by carbon dioxide asphyxiation following the completion of the study.\nDescriptive statistics were used to summarize the tumor size and data reported as medians and 25th and 75th quartiles. Wilcoxon sum rank test was used to investigate the effects of the treatments on tumor growth. […] Statistical analyses were performed on the SigmaPlot 11.0 software."}, "[4]": {"tested_on": "SW620 colorectal cancer cell line", "assay": "CCK8 cell viability assay, SW620", "type": "cell-based, human", "conditions": "MK2.III 1 µM or etoposide 150 µM alone, 24 h", "method": "as §1"}, "[5]": {"tested_on": "NCI-H69 cells", "assay": "FACS-based (DRAQ7) viability assay", "type": "cell-based, human", "method": "[…] Etoposide, SB203580 and MK2.III were all dissolved in 0.2% of DMSO before use. Cells treated only with the carrier molecule DMSO (0.2%) served as a control.\nViability analysis was performed by staining with the […], stoichiometric DNA stain DRAQ7 (640 or 633 nm excitation and 670 nm emission; Biostatus Limited). After 48-h treatment with DNA damaging agents and/or inhibitors, cells were washed once with RPMI 1640 and resuspended in 1 ml culture media at a concentration of less than 5 × 10^5/ ml. Cells were stained with 20 µM of DRAQ7 and incubated at 37 °C for 10 min before FACS Calibur cytometer analysis. Fluorescent signals were amplified using linear mode. Cell cycle analysis was performed either by staining DRAQ7 or Propidium Iodide (PI). Cells were stained with 20 µM of DRAQ7 and incubated at 37 °C for 10 min before analysis on a FACSCalibur cytometer. Propidium Iodide (PI, excited with 488 nm laser, collected with 585/52 bandpass filter) was used in the large-scale experiments. Samples were then fixed with 70% EtOH following the viability assay and stored at 4 °C overnight before the experiment. After fixation with 70% EtOH (added drop-wise) for 24 h, samples were centrifuged into the pellet and then washed twice with ice-cold PBS. The supernatant was discarded and pellets were resuspended in 100 µl of RNase A (100 µg/ml) and 400 µl of PI ([…] in PBS). Analysis of flow cytometry data was performed using FlowJo software. Untreated, unstained cells were used as a negative control to determine the location of viable cells on the dot plots. Events below a threshold size were interpreted as cellular debris and were removed from the dataset, leaving a whole cell population."}, "[6]": {"tested_on": "MDA-MB-231 breast cancer cell line", "assay": "CCK8 cell viability assay, MDA-MB-231", "type": "cell-based, human", "conditions": "MK2.III 1 µM or etoposide 150 µM alone, 24 h", "method": "as §1"}, "[7]": {"tested_on": "NCI-H69 cells", "assay": "FACS-based cell cycle analysis", "parameters": "species or system human", "conditions": "single treatment, increasing dose", "method": "The cells were grown in 12 well plates (Scientific Laboratory Supplies Limited, UK) in RPMI 1640 (Gibco, UK) supplemented with 10% FBS (Autogen Bioclear, UK) and 10,000 U/ml penicillin and 10 mg/ml streptomycin (Sigma, UK) at 37 °C under 5% CO2 and treated with 10, 20, 50, 100 and 150 µM of DNA damaging agent etoposide (VP-16) (Sigma, UK) in the presence or absence of p38MAPK inhibitor SB203580 (Tocris Chemical Co., UK) or MK2 inhibitor MK2.III (Merck, UK) in concentrations of 0, 0.3125, 0.625, 1.25, 2.5, and 5.0 µM. Etoposide, SB203580 and MK2.III were all dissolved in 0.2% of DMSO before use. Cells treated only with the carrier molecule DMSO (0.2%) served as a control.\nViability analysis was performed by staining with the […], stoichiometric DNA stain DRAQ7 (640 or 633 nm excitation and 670 nm emission; Biostatus Limited). After 48-h treatment with DNA damaging agents and/or inhibitors, cells were washed once with RPMI 1640 and resuspended in 1 ml culture media at a concentration of less than 5 × 10^5/ ml. Cells were stained with 20 µM of DRAQ7 and incubated at 37 °C for 10 min before FACS Calibur cytometer analysis. Fluorescent signals were amplified using linear mode. Cell cycle analysis was performed either by staining DRAQ7 or Propidium Iodide (PI). Cells were stained with 20 µM of DRAQ7 and incubated at 37 °C for 10 min before analysis on a FACSCalibur cytometer. […]"}},
  "data": [
    {"molecule": "O=C1NCCc2[nH]c(-c3ccnc(-c4cnc5ccccc5c4)c3)cc21", "note": "[MK2.III]", "values": [
      {"measurement": "Solubility", "setting": "[1]", "result": "poor solubility"},
      {"measurement": "Effect of single agent on viability", "setting": "[2]", "result": "does not affect the viability"},
      {"measurement": "Difference in tumor size versus control", "setting": "[3]; at any checkpoint, etoposide 12 mg/kg, MK2.III 4 mg/kg, or etoposide + MK2.III 2 mg/kg", "result": "no significant difference"},
      {"measurement": "Tumor Volume (mm^3) median (25th and 75th quartile)", "setting": "[3]; day 11 upon treatment, MK2.III 4 mg/kg IP daily", "result": "516 (401;703) mm^3"},
      {"measurement": "Tumor Volume (mm^3) median (25th and 75th quartile)", "setting": "[3]; day 18 upon treatment, MK2.III 4 mg/kg IP daily", "result": "843 (712;1197) mm^3"},
      {"measurement": "Tumor Volume (mm^3) median (25th and 75th quartile)", "setting": "[3]; day -1 upon treatment (baseline), MK2.III 4 mg/kg IP", "result": "106 (72;132) mm^3"},
      {"measurement": "Decrease of viability by single agent", "setting": "[4]", "result": 30, "unit": "%"},
      {"measurement": "Viable cells (%)", "setting": "[5]; Table 1 dose response, agent alone 0.321 µM (lowest dose), 48 h", "result": 87.4, "unit": "%"},
      {"measurement": "Viable cells (%)", "setting": "[5]; Table 1 dose response, agent alone 0.626 µM, 48 h", "result": 90.2, "unit": "%"},
      {"measurement": "Viable cells (%)", "setting": "[5]; Table 1 dose response, agent alone 1.25 µM, 48 h", "result": 87.3, "unit": "%"},
      {"measurement": "Viable cells (%)", "setting": "[5]; Table 1 dose response, agent alone 2.5 µM, 48 h", "result": 88.4, "unit": "%"},
      {"measurement": "Viable cells (%)", "setting": "[5]; Table 1 dose response, agent alone 5.0 µM (highest dose), 48 h", "result": 83.5, "unit": "%"},
      {"measurement": "Viable cells (%)", "setting": "[5]; Table 2, VP-16 0 µM (inhibitor alone: MK2.III 1.0 µM or SB203580 2.5 µM), DMSO control 74.6%", "result": 66.1, "unit": "%"},
      {"measurement": "Effect of single agent on viability", "setting": "[6]", "result": "does not affect the viability"},
      {"measurement": "Effect on cell cycle profile, single agent", "setting": "[7]", "result": "little effect on the cell cycle profile"}
    ]}
  ]
}
